Experimental data: patent US12692232B2, “Indole carboxamide compound, preparation therefor and use thereof” (NANJING RUISHUNING MEDICAL TECHNOLOGY CO., LTD., priority 2021, dated 2026)

Target: T1, TRPC5 protein (Homo sapiens, UniProt Q9UL62)
T1 sequence (Q9UL62 1-973): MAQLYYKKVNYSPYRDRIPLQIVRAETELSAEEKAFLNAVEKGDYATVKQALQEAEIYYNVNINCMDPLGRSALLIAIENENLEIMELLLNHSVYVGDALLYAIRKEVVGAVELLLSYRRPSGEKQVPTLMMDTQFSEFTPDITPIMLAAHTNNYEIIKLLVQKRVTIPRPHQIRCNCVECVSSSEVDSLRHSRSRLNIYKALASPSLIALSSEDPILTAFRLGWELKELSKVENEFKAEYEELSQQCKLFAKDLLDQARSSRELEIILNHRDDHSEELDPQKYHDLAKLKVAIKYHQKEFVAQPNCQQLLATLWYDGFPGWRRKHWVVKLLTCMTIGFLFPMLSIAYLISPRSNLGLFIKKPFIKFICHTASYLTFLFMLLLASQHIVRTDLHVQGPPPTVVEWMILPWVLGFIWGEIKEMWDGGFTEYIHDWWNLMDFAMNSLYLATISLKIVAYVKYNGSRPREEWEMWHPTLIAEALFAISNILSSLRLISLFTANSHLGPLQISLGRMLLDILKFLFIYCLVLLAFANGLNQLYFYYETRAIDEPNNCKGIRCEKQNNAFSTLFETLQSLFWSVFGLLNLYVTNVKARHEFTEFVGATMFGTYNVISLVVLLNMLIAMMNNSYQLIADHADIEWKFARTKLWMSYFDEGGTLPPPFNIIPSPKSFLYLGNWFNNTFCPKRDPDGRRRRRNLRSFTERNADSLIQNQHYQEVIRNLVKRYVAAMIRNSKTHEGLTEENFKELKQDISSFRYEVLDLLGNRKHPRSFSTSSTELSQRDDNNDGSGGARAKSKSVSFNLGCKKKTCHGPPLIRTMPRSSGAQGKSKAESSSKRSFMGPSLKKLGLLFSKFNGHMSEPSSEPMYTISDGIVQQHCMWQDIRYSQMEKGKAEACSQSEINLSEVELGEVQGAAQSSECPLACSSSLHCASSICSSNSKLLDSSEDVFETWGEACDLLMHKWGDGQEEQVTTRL
Experiment: MST binding to TRPC5 protein
Experimental: Preparation and labelling of protein solution: TRPC6 protein dry powder (Alomone Labs, Israel) was prepared into a protein mother solution at a concentration of 10 μM using PBS-Buffer, and 35 μL of the protein stock solution was taken to the Buffer exchange A column, and centrifuged to obtain the Tris-removed protein. 34 μL Labelling Buffer was added to the Tris-removed protein according to the instructions of the Protein Fluorescent Labelling Kit (model L001). After mixing well, 3 μL of NT-647-NHS fluorescent dye was added and thus obtained mixture was incubated for 20 minutes. The protein-dye mixture was transferred to the purification B column, 300 μL of PBS-Buffer was added, and the target protein, i.e. fluorescent labelled protein TRPC6, was collected by centrifugation (with a final concentration of about 2 μM). 180 μL of target protein was mixed with 1620 μL of PBS-Buffer, and then 9 μl of Tween-20 were added thereto. […]
The binding ability of the compounds of the present invention (as exemplified by the compounds 1-1 and 2-1 obtained in Examples 1 and 3) for other TRPC proteins (e.g., TRPC1, TRPC3, TRPC4, TRPC5, and TRPC7) was determined using the microscale thermophoresis (MST) method. […]
The affinity of the compounds of the present invention with TRPC1, TRPC3, TRPC4, TRPC5 and TRPC7 proteins, respectively, was determined by the same method as in Example 5.

Compound: CC(=O)OCCCNC(=O)c1c(C=O)c2ccccc2n1C [compound 1-1, propyl 3-[(3-formyl-1-methyl-1H-indole-2-carbonyl)amino]acetate]
- Kd for binding to TRPCS protein: cannot be measured

Compound: Cn1c(C(=O)NCCCOC(=O)c2ccccc2)c(C=O)c2ccccc21 [compound 2-1]
- Kd for binding to TRPCS protein: cannot be measured
